Reference: US20180296523A1, “USE OF POLYMETHOXYLATED FLAVONES TO AMELIORATE CIRCADIAN RHYTHM DISORDERS” (THE BOARD OF REGENTS OF THE UNIVERSITY OF TEXAS SY, priority 2017, published 2018)

Tested on: clock genes and metabolic output genes in mouse liver
Assay: Liver gene expression in HFD-fed WT mice (qPCR, Western blot, microarray)
Type: in vivo
Description: For qPCR analysis, cells were split into 6-well plates at an initial density of 3×10^5 cells and incubated for 2-4 days before synchronization (5 μM Fsk or 100 nM Dex) followed by compound treatment. RNA samples were prepared by using PureXtract RNAsol for cDNA synthesis and real-time PCR (GenDEPOT) was performed with a MaxPro3000 Thermocycler (Agilent). qPCR primers used are listed in the table shown in Example 4. Whole cell lysates from cells similarly grown and treated in 60 mm dishes and tissue extracts were prepared as described (Yoo et al., 2013) and subjected to Western blot analysis (GenDEPOT). Antibodies for REV-ERBα (Pierce and Cell Signaling), PER1 (Lee et al., 2001) and other clock proteins (Yoo et al., 2013) were used. Total RNAs prepared from liver tissues from RC-fed, Vehicle-treated and HFD-fed, Vehicle or NOB-treated WT mice for 10 weeks were reverse transcribed into cDNAs, which were then biotin-UTP labeled and hybridized to the Illumina mouse WG-6v2.0 Expression BeadChip. Genes with statistically significant fold change differences was clustered using centered correlation (Cluster 3.0) and then visualized as a heat map on Tree View. Moreover, genes with statistically significant differences derived from microarray analyses were imported into the Ingenuity Pathway Analysis (IPA, http://www.ingenuity.com). In IPA, differentially expressed genes are mapped to genetic networks in the Ingenuity Knowledge Database to generate a set of network and then ranked by score. Heatmaps were generated by using Cluster 3.0 program. ChIP-seq data analysis was conducted as previously described (Koike et al., 2012). The data discussed in this publication have been deposited in NCBI's Gene Expression Omnibus (Edgar et al., 2002) and are accessible through GEO Series accession number GSE78848. To characterize the molecular basis of nobiletin action in HFD-fed WT mice, studies focused on a major metabolic organ, the liver, in which we observed a strong protection by nobiletin was observed. Specifically, total RNAs prepared from liver tissues from RC.Veh and HF.Veh or HF.nobiletin WT mice for 10 weeks were reverse transcribed into cDNAs, which were then biotin-UTP labeled and hybridized to the Illumina mouse WG-6v2.0 Expression BeadChip. The data discussed in this publication have been deposited in the National Center for Biotechnology Information's Gene Expression Omnibus (GEO) and are accessible through GEO Series accession number GSE78848. Real-time qPCR and western blotting analyses of circadian gene expression were conducted as previously described (Yoo et al., 2013). Primers used were as follows: […]

[1] = HF.nobiletin versus HF.Veh mice

COc1ccc(-c2cc(=O)c3c(OC)c(OC)c(OC)c(OC)c3o2)cc1OC [nobiletin]
ROR target genes (e.g., Cyp7b1, IkBa, and Gck) (DIO mouse liver, relative to control treatment): induced
circadian clock transcript oscillations in liver [1]: improved circadian clock transcript oscillations
clock protein rhythms in liver [1]: largely restored clock protein rhythms
transcript expression of Cidec/Fsp27 in liver (HFD-fed WT mice, qPCR): reverted back to baseline levels
expression of genes involved in gluconeogenesis and glycolysis (e.g., Pdk4 and Pkm2) (liver): altered the expression
